Results published in PMC7180948, “New Insights into 4-Anilinoquinazolines as Inhibitors of Cardiac Troponin I–Interacting Kinase (TNNi3K)” (Molecules, 2020).

What was measured:
Assay in all cases: biochemical
Set-up in all cases: KINOMEscan competition binding panel (Eurofins DiscoverX), single concentration, % inhibition
Settings in all cases: read-out: 7 at 1 µM % inhibition
BRK = molecular target: T1, BRK (Homo sapiens, UniProt Q13882)
T1 construct: gene PTK6
Summary of the method: (§1)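 KINOMEscan binding panel of >400 kinases, run by Eurofins DiscoverX, with compounds tested at a single concentration of 1 µM.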

DRAK2 = molecular target: T2, DRAK2 (Homo sapiens, UniProt O94768)
T2 construct: gene STK17B
Summary of the method: as §1

EPHB3 = EPHB3 (Homo sapiens, UniProt P54753)
Summary of the method: as §1

ERK8 = molecular target: T3, ERK8 (Homo sapiens, UniProt Q8TD08)
T3 construct: gene MAPK15
Summary of the method: as §1

FGFR4 = FGFR4 (Homo sapiens, UniProt P22455)
Summary of the method: as §1

FLT3(R834Q) = FLT3(R834Q) (Homo sapiens, UniProt P36888, R834Q)
Summary of the method: as §1

IGF1R = IGF1R (Homo sapiens, UniProt P08069)
Summary of the method: as §1

LTK = LTK (Homo sapiens, UniProt P29376)
Summary of the method: as §1

LYN = LYN (Homo sapiens, UniProt P07948)
Summary of the method: as §1

MAP4K4 = MAP4K4 (Homo sapiens, UniProt O95819)
Summary of the method: as §1

MRCKA = molecular target: T4, MRCKA (Homo sapiens, UniProt Q5VT25)
T4 construct: gene CDC42BPA
Summary of the method: as §1

MST2 = molecular target: T5, MST2 (Homo sapiens, UniProt Q13188)
T5 construct: gene STK3
Summary of the method: as §1

PAK4 = PAK4 (Homo sapiens, UniProt O96013)
Summary of the method: as §1

PIP5K2C = molecular target: T6, PIP5K2C (Homo sapiens, UniProt Q8TBX8)
T6 construct: gene PIP4K2C
Summary of the method: as §1

PLK3 = PLK3 (Homo sapiens, UniProt Q9H4B4)
Summary of the method: as §1

PRKD2 = PRKD2 (Homo sapiens, UniProt Q9BZL6)
Summary of the method: as §1

QSK = molecular target: T7, QSK (Homo sapiens, UniProt Q9Y2K2)
T7 construct: gene SIK3
Summary of the method: as §1

RIOK2 = RIOK2 (Homo sapiens, UniProt Q9BVS4)
Summary of the method: as §1

SGK3 = SGK3 (Homo sapiens, UniProt Q96BR1)
Summary of the method: as §1

STK33 = STK33 (Homo sapiens, UniProt Q9BYT3)
Summary of the method: as §1

TSSK1B = TSSK1B (Homo sapiens, UniProt Q9BXA7)
Summary of the method: as §1

WEE1 = WEE1 (Homo sapiens, UniProt P30291)
Summary of the method: as §1

WNK1 = WNK1 (Homo sapiens, UniProt Q9H4A3)
Summary of the method: as §1

YES = molecular target: T8, YES (Homo sapiens, UniProt P07947)
T8 construct: gene YES1
Summary of the method: as §1

T4 sequence (Q5VT25 whole entry): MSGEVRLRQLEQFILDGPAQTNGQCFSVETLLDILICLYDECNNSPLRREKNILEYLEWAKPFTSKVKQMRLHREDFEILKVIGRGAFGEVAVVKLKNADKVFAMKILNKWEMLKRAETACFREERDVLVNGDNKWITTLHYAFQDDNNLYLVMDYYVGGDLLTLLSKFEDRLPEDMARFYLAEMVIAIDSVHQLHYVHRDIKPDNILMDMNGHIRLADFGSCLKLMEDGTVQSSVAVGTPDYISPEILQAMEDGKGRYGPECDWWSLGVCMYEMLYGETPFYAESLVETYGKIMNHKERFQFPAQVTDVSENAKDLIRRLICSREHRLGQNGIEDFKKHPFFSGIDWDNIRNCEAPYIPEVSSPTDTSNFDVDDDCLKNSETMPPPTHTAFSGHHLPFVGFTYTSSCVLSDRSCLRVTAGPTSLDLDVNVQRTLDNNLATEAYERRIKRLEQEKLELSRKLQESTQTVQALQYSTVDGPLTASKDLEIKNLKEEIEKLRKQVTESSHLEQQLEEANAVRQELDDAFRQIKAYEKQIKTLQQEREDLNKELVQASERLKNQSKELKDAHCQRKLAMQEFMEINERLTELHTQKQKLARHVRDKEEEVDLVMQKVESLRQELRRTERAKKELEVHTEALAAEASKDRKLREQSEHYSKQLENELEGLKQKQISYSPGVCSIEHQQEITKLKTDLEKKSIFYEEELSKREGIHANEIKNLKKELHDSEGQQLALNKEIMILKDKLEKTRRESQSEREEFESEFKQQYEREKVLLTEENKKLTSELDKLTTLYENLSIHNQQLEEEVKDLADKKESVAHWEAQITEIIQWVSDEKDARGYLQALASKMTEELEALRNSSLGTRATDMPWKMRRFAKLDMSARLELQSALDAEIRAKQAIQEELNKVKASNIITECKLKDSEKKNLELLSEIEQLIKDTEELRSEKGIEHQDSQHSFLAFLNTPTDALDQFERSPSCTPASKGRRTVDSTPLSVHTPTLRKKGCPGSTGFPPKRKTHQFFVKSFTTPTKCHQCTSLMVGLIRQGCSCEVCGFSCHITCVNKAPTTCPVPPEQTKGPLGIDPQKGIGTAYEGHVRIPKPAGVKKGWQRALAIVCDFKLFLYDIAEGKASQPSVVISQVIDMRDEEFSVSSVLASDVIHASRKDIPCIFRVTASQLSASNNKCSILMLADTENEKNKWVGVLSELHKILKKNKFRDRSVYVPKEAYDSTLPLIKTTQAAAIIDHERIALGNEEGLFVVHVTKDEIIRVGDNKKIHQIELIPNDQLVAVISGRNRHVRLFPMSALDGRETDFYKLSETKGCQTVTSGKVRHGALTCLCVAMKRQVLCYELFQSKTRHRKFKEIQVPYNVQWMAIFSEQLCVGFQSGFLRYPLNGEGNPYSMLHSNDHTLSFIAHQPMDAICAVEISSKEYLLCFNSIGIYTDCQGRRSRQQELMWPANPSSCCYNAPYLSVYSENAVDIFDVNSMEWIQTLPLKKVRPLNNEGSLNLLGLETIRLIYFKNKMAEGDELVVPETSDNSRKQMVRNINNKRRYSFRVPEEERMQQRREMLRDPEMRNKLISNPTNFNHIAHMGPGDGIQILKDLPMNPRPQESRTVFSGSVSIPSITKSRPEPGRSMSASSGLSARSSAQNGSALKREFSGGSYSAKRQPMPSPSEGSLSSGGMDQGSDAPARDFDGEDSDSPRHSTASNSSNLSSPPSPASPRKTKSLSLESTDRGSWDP
T8 sequence (P07947 whole entry): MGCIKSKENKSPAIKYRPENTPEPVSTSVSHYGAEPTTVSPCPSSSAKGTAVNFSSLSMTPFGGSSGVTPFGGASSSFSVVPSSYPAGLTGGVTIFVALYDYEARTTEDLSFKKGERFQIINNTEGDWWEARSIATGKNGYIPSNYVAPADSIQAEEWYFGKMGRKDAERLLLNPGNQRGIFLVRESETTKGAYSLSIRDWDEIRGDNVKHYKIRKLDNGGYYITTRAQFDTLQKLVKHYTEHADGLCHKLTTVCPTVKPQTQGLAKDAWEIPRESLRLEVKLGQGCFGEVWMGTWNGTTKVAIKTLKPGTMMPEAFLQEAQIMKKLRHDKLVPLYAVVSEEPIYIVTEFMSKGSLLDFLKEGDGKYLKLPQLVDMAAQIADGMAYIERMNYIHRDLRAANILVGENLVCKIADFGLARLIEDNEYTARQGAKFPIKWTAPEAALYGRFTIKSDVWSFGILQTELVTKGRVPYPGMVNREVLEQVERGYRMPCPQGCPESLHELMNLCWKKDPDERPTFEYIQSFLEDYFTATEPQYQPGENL
T6 sequence (Q8TBX8 whole entry): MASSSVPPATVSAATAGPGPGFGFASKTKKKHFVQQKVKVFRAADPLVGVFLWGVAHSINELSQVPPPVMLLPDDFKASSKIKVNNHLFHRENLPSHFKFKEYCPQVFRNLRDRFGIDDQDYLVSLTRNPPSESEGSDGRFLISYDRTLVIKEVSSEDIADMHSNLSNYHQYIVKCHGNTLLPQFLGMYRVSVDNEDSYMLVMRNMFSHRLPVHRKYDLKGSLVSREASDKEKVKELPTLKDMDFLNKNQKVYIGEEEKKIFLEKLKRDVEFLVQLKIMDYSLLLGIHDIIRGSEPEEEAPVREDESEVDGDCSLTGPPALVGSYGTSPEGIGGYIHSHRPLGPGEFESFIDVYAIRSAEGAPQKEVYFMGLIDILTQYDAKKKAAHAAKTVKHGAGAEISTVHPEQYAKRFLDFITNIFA
Chain of LYN (P07948 whole entry): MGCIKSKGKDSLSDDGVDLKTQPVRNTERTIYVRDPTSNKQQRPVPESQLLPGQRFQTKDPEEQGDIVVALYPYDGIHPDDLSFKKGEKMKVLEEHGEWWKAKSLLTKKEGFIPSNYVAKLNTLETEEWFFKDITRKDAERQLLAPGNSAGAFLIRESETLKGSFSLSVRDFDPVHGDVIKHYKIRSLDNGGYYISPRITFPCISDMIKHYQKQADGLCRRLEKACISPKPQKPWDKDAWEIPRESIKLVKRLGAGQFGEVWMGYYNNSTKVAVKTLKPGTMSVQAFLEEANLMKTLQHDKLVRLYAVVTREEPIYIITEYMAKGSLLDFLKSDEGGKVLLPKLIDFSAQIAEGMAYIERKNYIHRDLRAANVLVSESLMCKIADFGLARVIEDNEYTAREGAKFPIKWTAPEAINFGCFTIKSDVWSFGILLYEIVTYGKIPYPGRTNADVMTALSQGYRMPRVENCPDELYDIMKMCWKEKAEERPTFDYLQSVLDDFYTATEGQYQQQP
T7 sequence (Q9Y2K2 whole entry): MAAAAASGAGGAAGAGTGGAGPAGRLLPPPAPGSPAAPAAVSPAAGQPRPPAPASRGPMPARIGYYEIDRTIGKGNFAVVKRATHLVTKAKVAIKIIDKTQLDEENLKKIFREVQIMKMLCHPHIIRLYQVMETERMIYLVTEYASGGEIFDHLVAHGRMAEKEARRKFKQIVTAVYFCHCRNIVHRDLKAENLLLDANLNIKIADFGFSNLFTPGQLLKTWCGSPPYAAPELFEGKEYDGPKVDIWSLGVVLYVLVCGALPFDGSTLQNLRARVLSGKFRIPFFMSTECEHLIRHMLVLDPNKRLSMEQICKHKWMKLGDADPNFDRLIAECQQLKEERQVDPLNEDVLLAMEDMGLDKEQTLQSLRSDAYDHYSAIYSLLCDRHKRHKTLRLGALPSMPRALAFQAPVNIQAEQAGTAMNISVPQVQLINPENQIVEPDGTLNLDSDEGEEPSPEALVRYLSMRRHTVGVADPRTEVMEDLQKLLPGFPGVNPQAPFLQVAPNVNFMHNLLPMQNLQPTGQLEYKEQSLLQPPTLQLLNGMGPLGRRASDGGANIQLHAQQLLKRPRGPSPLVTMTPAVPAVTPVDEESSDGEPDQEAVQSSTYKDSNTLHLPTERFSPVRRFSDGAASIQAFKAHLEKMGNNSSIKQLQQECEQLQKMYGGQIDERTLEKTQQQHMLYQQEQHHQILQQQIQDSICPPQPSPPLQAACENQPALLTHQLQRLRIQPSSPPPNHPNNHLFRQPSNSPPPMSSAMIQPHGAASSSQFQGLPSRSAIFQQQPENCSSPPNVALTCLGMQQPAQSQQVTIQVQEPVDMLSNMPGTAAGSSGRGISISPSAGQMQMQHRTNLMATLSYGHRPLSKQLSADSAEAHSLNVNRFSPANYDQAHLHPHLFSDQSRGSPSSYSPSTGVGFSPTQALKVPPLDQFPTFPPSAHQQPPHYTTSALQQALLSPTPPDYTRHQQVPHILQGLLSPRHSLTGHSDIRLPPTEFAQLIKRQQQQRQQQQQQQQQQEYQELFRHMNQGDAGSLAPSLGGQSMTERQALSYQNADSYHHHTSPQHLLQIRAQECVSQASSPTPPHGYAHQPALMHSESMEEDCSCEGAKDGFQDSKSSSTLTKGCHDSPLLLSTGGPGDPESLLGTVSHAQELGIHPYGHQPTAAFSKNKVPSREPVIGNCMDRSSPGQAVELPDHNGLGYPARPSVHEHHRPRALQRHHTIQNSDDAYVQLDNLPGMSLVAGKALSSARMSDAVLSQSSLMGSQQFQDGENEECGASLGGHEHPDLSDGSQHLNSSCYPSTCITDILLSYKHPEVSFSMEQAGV
T5 sequence (Q13188 whole entry): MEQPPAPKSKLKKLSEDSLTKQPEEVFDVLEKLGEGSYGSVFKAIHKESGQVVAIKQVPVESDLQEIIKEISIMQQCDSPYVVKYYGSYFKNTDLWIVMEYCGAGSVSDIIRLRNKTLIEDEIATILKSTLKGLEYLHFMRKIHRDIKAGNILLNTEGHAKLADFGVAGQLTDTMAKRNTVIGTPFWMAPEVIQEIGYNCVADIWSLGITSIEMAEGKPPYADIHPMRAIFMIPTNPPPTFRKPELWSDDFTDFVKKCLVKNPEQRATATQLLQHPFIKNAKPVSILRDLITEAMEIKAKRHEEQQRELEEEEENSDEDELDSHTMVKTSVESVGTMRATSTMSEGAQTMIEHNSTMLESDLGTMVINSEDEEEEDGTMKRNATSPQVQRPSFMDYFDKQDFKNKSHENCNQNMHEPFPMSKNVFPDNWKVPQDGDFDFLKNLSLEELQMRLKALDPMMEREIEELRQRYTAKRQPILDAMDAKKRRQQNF

Structure (SMILES): CNS(=O)(=O)c1ccc(N(C)C)c(Nc2ncnc3cc(OC)c(OC)cc23)c1 [compound 7, 3-((6,7-dimethoxyquinazolin-4-yl)amino)-4-(dimethylamino)-N-methylbenzenesulfonamide]
- inhibition at 1 µM (BRK): 0%
- inhibition at 1 µM (DRAK2): 0%
- inhibition at 1 µM (EPHB3): 0%
- inhibition at 1 µM (ERK8): 13%
- inhibition at 1 µM (FGFR4): 0%
- inhibition at 1 µM (FLT3(R834Q)): 31%
- inhibition at 1 µM (IGF1R): 0%
- inhibition at 1 µM (LTK): 44%
- inhibition at 1 µM (LYN): 0%
- inhibition at 1 µM (MAP4K4): 0%
- inhibition at 1 µM (MRCKA): 0%
- inhibition at 1 µM (MST2): 0%
- inhibition at 1 µM (PAK4): 0%
- inhibition at 1 µM (PIP5K2C): 0%
- inhibition at 1 µM (PLK3): 0%
- inhibition at 1 µM (PRKD2): 8%
- inhibition at 1 µM (QSK): 52%
- inhibition at 1 µM (RIOK2): 0%
- inhibition at 1 µM (SGK3): 1%
- inhibition at 1 µM (STK33): 6%
- inhibition at 1 µM (TSSK1B): 0%
- inhibition at 1 µM (WEE1): 0%
- inhibition at 1 µM (WNK1): 62%
- inhibition at 1 µM (YES): 0%
